Active and inactive are the calls of the source.
Key:
[1] = tested on: Streptococcus sp. 'group A'; experiment: growth inhibition of control SK(-) GAS strain, dose response, counter-screen for streptokinase expression inhibitor project, luminescence, kanamycin, BacTiterGlo, confirmation (AID 1900); format: functional, organism-based
[2] = A Cell Based Secondary Assay To Explore Cytotoxicity of Compounds that Sensitize Mycobacterium Tuberculosis to Beta-Lactam Antibiotics.; format: functional
Streptococcus = experiment: Group A Streptococcus viability loss, dose response, counter-screen for streptokinase expression inhibitor project, luminescence, BacTiterGlo (AID 1915); format: functional, organism-based;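 further: potency for reduction of bacterial viability or growth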
Tumor necrosis factor = Tumor necrosis factor (Homo sapiens, UniProt P01375); experiment: TNFa-triggered NF-kB activation inhibitors, SAR follow-up, cell-based, revised (AID 2337); format: functional
[3] = THP-1 cell cytotoxicity, dose response, cytotoxicity control for non-replicating M. tuberculosis project (AID 489025); format: functional
[4] = target: T1, Nucleotide-binding oligomerization domain-containing protein 1 (Homo sapiens, UniProt Q9Y239); experiment: NOD1 signaling inhibitors, SAR follow-up, revised (AID 2333); format: functional
T1 sequence (Q9Y239 whole entry): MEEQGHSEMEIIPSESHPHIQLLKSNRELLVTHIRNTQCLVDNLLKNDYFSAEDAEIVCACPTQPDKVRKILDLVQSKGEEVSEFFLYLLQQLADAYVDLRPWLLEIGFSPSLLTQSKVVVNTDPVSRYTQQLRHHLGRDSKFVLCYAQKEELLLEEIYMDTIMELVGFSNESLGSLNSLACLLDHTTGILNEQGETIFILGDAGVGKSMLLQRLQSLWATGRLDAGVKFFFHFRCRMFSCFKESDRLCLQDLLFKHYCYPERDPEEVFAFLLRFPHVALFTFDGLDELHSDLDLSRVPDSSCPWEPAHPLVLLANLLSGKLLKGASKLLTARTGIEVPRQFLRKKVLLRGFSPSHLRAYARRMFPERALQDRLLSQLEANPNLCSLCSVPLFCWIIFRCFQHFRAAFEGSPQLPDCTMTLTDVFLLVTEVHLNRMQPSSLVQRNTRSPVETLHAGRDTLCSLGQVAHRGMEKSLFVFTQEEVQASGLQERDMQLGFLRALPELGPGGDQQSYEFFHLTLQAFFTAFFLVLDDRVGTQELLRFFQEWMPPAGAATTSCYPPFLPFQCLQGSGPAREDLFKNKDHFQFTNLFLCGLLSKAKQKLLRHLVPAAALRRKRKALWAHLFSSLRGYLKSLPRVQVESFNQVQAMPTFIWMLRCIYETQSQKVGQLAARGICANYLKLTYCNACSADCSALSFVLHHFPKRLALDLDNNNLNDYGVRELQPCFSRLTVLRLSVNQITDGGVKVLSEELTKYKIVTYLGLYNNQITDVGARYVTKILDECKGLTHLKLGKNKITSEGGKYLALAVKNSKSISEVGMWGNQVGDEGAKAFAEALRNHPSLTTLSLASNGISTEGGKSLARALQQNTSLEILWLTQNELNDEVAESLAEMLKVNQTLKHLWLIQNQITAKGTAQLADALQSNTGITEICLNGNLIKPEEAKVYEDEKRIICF

[5] = HepG2 cell cytotoxicity, dose response, cytotoxicity control for non-replicating M. tuberculosis project (AID 489018); format: functional; settings: Mycobacterium tuberculosis
[6] = Vero E6 cell cytotoxicity, dose response, cytotoxicity control for non-replicating M. tuberculosis project, secondary assay (AID 492998); format: functional, VeroE6; settings: Vero C1008
[7] = target: T2, Microphthalmia-associated transcription factor (Homo sapiens, UniProt O75030); experiment: TRPM1 promoter luciferase signal decrease, dose response, MITF inhibitor project, cell-based, SK-MEL-5, cherry-picked, set 3 (AID 493073); format: functional
T2 sequence (O75030 whole entry): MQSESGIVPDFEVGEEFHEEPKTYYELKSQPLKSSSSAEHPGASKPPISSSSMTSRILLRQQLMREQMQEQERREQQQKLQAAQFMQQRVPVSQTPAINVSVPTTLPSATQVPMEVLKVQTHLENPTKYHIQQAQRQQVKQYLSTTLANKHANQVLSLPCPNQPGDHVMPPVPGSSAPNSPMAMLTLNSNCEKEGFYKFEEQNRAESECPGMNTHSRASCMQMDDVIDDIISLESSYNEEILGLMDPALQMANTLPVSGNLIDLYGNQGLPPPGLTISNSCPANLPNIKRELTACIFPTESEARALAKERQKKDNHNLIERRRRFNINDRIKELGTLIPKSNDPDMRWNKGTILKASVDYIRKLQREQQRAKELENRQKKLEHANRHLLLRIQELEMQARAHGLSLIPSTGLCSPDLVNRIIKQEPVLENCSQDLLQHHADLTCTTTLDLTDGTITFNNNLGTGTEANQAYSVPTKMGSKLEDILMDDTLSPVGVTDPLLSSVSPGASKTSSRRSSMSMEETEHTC

cells = format: functional
[8] = Shn3 3'UTR reporter inhibitors, dose response, cell-based, Clone20 osteoblasts, firefly luciferase, cherry-picked (AID 624132); format: functional;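 further: firefly luciferase luminescence from reporter carrying the Shn3 3'UTR in osteoblasts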
[9] = HepG2 cell cytotoxicity, dose response, cytotoxicity control for Shn3 inhibitor project, CellTiter-Glo, cherry-picked (AID 624134); format: functional, cell-based
[10] = control 3'UTR Renilla luciferase suppression, dose response, counter-screen for Shn3 inhibitor project, cell-based, Clone20-Shn3RL, cherry-picked (AID 624133); format: functional
HEK293 = experiment: cells; settings: Homo sapiens;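 further: cells exposed to compound for 14 hours overnight before viability readout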
SUMO-activating enzyme = SUMO-activating enzyme (Homo sapiens, UniProt Q9UBT2); experiment: SUMOylation inhibitor hit validation, confirmation, SUMOylation inhibitor project, biochemical, AlphaScreen (AID 2018); format: functional
[11] = growth suppression of PTEN-null colon cells, dose response, cell-based, HCT116 PTEN knockout (AID 1047); format: functional;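 further: HCT116 colon tumor cells with PTEN knocked out; cells exposed to compound for 60 hours before readout; potency for loss of cell viability measured by luminescence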
[12] = target: T3, Calpain-2 catalytic subunit (Sus scrofa, UniProt P43367); experiment: pig calpain II inhibitor potency, dose response, biochemical, fluorogenic peptide substrate (AID 1420); format: functional
T3 sequence (P43367 whole entry): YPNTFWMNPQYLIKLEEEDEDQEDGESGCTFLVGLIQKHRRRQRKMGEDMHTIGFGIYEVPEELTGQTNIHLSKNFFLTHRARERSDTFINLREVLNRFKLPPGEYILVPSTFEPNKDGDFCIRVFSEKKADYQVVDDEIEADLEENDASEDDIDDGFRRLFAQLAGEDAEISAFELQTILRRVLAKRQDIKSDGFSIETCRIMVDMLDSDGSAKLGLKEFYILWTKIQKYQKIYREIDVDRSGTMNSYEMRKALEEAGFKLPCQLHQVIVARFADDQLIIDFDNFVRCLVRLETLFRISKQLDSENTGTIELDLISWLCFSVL

[13] = growth suppression of beta-catenin-knockout colon cells, dose response, cell-based, HCT116, human colon tumor (AID 1045); format: functional;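 further: HCT116 colon tumor cells with beta catenin knocked out; cells exposed to compound for 60 hours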
[14] = target: T4, Mannose-6-phosphate isomerase (Homo sapiens, UniProt P34949); experiment: PMI enzyme inhibitors, confirmation, biochemical, fluorescence intensity (AID 1535)
T4 sequence (P34949 whole entry): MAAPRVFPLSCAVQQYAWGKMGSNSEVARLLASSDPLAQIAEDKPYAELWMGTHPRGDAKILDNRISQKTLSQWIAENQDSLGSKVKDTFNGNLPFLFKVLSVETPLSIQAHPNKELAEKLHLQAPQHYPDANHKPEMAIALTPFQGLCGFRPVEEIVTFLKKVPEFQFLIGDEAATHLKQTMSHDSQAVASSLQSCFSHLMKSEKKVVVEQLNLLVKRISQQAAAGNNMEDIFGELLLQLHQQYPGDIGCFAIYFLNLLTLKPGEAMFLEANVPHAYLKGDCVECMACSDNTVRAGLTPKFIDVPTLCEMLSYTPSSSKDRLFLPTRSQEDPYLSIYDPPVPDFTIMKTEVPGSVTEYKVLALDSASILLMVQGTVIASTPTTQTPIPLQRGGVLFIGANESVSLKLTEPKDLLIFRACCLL

Phosphomannomutase 2 = Phosphomannomutase 2 (Homo sapiens, UniProt O15305); experiment: Counter screen SAR assay for PMM2 inhibitors via a fluorescence intensity assay. [Related pubchem assays (depositor defined):AID1545, AID1574]
[15] = target: T5, Voltage-gated N-type calcium channel alpha-1B subunit/Amyloid beta A4 precursor protein-binding family A member 1 (Homo sapiens, UniProt Q00975+Q02410); format: protein assay
[16] = target: T5, Voltage-gated N-type calcium channel alpha-1B subunit/Amyloid beta A4 precursor protein-binding family A member 1; format: protein assay; remark: listed apart in the source
[17] = target: Induced myeloid leukemia cell differentiation protein Mcl-1 (Homo sapiens, UniProt Q07820); format: functional
SUMO E1/E2 = SUMO E1/E2 (Homo sapiens, UniProt P63279+Q9UBE0+Q9UBT2); experiment: SAR analysis of SUMOylation using HTRF in an in-Vitro dose response assay. [Related pubchem assays (depositor defined):AID2006, AID2011, AID2018, AID2069, AID2658]; format: functional
[18] = target: Eukaryotic translation initiation factor 4E (Mus musculus, UniProt P63073); experiment: eIF4E–eIF4G protein interaction inhibitors, dose response, biochemical, TR-FRET (AID 855); format: functional;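 further: potency for disrupting eIF4E binding to eIF4GI seen as loss of FRET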
[19] = target: T5, Voltage-gated N-type calcium channel alpha-1B subunit/Amyloid beta A4 precursor protein-binding family A member 1; experiment: disruptors of Mint-PDZ/N-type channel peptide interaction – biochemical, HTRF, set 2, SAR follow-up (AID 434980); format: functional
[20] = target: T5, Voltage-gated N-type calcium channel alpha-1B subunit/Amyloid beta A4 precursor protein-binding family A member 1; experiment: disruptors of Mint-PDZ/N-type channel peptide interaction – biochemical, HTRF, SAR follow-up (AID 2489); format: functional
Kallikrein-7 = Kallikrein-7 (Homo sapiens, UniProt P49862); experiment: Fluorescence Intensity-based biochemical primary high throughput dose response assay to identify activators of kallikrein-7 (K7) zymogen.
[21] = target: T6, Type-1 angiotensin II receptor (Homo sapiens, UniProt P30556); experiment: AT1 receptor agonists, dose response, selectivity assay for APJ receptor agonist project, cell-based, uHTS hits (AID 488865); format: functional;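 further: beta-arrestin recruitment to AT1 measured by enzyme fragment complementation luminescence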
T6 sequence (P30556 whole entry): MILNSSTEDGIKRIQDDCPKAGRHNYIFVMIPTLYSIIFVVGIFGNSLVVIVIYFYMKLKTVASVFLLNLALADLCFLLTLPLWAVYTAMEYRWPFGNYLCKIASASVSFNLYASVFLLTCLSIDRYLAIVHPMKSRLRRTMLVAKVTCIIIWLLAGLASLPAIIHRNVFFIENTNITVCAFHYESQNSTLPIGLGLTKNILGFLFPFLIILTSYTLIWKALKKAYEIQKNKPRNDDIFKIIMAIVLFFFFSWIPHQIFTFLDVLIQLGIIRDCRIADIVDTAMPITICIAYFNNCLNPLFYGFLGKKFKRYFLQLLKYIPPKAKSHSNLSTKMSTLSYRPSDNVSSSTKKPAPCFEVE

Bcl-2-related protein A1 = target: T7, Bcl-2-related protein A1 (Mus musculus, UniProt Q07440); format: functional;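 further: confirmatory dose–response counterscreen on Bfl-1, used to check hits from a UBC13 polyubiquitin inhibitor campaign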
T7 sequence (Q07440 whole entry): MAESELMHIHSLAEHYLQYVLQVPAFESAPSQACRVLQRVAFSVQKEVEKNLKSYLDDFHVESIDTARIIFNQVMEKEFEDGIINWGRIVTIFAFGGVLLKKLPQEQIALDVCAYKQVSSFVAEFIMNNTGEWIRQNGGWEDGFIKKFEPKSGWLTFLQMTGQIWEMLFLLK

[22] = target: T8, Ubiquitin-conjugating enzyme E2 N (Homo sapiens, UniProt P61088); format: functional
T8 sequence (P61088 whole entry): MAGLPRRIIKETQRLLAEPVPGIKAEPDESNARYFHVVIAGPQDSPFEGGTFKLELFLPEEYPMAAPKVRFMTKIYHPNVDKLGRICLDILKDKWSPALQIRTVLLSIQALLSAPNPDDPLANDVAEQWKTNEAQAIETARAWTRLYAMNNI

[23] = target: T8, Ubiquitin-conjugating enzyme E2 N; format: functional; remark: listed apart in the source

T5 sequence (Q00975 whole entry): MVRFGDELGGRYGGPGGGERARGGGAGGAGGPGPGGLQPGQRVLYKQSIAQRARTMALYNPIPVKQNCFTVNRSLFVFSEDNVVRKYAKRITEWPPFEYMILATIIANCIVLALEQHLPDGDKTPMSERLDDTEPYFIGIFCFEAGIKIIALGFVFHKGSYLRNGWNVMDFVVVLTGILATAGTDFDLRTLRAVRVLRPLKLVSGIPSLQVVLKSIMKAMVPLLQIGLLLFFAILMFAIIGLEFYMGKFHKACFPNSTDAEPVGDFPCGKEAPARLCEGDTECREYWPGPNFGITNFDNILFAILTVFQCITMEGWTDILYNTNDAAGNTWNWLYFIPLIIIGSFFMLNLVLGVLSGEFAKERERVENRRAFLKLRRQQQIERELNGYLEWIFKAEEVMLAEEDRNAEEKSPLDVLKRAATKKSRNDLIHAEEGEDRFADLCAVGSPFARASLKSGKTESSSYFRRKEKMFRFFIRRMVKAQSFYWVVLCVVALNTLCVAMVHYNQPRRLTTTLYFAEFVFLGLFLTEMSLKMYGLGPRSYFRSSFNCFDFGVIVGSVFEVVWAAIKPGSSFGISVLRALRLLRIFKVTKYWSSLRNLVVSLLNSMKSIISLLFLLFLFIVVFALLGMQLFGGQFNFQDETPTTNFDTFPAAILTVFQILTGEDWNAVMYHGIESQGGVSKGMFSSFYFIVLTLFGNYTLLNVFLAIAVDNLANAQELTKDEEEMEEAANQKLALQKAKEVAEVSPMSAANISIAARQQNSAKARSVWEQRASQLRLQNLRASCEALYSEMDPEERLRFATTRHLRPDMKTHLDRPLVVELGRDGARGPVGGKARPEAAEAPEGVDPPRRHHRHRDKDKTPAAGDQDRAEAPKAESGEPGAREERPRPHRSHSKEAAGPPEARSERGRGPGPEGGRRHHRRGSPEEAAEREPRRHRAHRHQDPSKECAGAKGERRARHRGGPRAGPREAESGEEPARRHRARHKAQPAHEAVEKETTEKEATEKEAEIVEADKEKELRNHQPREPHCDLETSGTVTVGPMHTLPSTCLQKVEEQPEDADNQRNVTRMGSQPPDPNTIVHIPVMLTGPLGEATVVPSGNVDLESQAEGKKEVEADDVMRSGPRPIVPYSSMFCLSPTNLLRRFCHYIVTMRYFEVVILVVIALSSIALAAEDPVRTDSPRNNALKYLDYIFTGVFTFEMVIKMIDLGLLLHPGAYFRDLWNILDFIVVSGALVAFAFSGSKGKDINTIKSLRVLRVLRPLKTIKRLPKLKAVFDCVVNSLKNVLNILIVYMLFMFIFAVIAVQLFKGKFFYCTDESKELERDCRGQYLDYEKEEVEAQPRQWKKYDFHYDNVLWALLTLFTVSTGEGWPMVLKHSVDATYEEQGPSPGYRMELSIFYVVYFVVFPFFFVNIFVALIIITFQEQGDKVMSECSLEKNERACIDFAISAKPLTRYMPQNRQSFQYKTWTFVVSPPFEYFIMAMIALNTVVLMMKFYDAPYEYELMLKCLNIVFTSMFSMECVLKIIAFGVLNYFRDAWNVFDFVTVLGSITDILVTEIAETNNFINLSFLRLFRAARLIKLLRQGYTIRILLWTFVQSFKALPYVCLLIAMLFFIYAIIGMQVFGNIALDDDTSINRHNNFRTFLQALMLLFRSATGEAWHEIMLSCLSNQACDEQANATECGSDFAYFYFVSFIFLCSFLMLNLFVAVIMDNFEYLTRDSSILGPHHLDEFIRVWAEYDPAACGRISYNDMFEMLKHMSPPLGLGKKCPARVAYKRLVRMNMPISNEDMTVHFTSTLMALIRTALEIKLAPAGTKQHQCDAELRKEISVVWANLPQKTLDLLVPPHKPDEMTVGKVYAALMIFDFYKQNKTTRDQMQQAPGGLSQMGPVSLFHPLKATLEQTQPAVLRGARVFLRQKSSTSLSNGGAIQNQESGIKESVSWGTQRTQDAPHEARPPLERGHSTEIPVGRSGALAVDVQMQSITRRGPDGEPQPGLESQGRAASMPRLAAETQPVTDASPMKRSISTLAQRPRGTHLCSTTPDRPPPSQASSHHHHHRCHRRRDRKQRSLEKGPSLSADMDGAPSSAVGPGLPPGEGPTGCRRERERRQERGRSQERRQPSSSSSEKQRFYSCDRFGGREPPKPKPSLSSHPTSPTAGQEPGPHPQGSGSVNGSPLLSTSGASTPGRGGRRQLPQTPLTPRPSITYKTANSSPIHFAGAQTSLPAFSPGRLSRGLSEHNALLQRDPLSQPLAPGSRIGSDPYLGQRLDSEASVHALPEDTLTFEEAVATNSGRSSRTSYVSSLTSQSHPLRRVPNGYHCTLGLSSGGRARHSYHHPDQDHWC
T5 sequence (Q02410 whole entry): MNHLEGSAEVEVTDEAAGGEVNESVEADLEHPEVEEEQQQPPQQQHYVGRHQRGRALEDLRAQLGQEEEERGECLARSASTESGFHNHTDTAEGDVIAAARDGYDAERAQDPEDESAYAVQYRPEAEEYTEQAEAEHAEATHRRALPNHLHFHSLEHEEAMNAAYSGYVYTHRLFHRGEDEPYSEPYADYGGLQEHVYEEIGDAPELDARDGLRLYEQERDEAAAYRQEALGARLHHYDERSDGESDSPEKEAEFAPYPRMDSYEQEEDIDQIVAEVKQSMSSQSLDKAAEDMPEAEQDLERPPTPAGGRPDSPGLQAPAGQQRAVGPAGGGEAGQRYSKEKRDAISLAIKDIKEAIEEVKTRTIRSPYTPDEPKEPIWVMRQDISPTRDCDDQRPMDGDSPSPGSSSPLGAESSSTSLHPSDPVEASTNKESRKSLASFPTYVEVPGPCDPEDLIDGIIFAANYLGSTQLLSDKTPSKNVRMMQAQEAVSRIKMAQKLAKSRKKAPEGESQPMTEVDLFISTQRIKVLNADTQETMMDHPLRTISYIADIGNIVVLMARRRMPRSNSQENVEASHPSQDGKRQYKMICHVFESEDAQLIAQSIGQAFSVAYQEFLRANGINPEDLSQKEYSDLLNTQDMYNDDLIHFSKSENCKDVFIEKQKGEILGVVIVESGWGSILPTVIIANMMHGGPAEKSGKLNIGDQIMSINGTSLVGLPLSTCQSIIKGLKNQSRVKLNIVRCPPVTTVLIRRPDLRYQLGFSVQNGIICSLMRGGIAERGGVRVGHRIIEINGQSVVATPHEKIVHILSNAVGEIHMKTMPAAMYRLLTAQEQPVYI
Chain of Induced myeloid leukemia cell differentiation protein Mcl-1 (Q07820 whole entry): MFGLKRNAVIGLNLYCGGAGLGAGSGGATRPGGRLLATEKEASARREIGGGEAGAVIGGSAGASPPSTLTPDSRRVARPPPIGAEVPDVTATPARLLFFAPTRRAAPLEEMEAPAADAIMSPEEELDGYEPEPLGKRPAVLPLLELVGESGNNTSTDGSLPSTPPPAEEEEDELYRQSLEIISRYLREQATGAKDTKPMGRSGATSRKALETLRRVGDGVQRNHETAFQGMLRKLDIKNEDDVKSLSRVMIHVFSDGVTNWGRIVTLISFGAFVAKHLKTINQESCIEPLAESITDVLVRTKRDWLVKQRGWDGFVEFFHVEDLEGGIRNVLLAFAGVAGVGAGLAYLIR
Chain of Tumor necrosis factor (P01375 whole entry): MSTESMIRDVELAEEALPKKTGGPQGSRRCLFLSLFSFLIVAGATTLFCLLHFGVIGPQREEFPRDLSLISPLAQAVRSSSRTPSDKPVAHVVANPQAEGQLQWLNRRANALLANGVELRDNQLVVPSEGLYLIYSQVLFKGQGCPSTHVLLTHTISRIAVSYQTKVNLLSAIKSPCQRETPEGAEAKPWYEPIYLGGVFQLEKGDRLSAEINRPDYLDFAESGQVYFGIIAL
Chain of SUMO E1/E2 (Q9UBE0 whole entry): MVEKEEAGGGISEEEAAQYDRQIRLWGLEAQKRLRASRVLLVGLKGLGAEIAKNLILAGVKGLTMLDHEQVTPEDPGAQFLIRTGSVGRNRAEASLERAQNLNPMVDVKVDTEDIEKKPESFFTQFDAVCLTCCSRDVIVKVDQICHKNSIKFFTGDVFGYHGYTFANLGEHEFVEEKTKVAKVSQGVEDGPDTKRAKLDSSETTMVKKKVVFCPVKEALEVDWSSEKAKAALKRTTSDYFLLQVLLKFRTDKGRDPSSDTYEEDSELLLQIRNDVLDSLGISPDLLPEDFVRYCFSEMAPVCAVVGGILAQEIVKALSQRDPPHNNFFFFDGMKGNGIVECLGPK
Chain of SUMO E1/E2 (Q9UBT2 whole entry): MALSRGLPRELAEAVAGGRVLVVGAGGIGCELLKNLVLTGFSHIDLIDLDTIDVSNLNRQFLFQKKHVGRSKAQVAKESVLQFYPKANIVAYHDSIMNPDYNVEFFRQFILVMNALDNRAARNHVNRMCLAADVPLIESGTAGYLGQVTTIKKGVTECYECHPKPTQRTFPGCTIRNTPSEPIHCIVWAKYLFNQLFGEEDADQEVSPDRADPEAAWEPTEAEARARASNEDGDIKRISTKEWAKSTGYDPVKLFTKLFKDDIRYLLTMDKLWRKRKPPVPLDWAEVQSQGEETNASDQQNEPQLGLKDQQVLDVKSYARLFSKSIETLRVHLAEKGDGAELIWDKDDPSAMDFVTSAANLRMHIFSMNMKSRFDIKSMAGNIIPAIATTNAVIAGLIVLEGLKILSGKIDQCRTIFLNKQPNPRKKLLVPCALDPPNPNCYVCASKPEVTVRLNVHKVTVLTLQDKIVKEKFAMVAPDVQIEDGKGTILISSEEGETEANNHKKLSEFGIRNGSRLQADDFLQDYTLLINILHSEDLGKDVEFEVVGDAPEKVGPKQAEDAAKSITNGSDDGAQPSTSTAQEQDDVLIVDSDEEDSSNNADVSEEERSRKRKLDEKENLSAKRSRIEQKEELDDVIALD
Chain of SUMO E1/E2 (P63279 whole entry): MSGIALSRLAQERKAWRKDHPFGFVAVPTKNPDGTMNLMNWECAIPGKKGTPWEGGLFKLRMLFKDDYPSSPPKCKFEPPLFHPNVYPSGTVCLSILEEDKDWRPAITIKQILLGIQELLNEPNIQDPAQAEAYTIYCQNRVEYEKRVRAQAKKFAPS
Chain of SUMO-activating enzyme (Q9UBE0 whole entry): as the sequence (Q9UBE0 whole entry) above
Chain of SUMO-activating enzyme (Q9UBT2 whole entry): as the sequence (Q9UBT2 whole entry) above

CCCCCn1c(=O)c(C(=O)Nc2cnccn2)c(O)c2ccccc21
EC50 [1]: 3.24 µM (active) | CC50 [2]: 2.4 µM (active) | EC50 (Streptococcus): 5.32 µM (active) | IC50 (Tumor necrosis factor): > 20 µM (inactive) | CC50 [3]: 5.17 µM (active) | IC50 [4]: 11.3 µM (active) | CC50 [5]: 13.5 µM (active) | CC50 [6]: 4.02 µM (active) | AC50 [7]: 5.93 µM (active) | IC50 (cells): 3.04 µM (active) | AC50 [8]: 1.54 µM (active) | AC50 [9]: > 70 µM (inactive) | AC50 [10]: 3.1 µM (active) | IC50 (HEK293): > 20 µM (inactive)

O=C(Nc1nnc(-c2ccccc2SCc2ccccc2F)s1)Nc1ccccc1F
CC50 [2]: 29.5 µM (active) | IC50 (SUMO-activating enzyme): 41.1 µM (active) | EC50 [11]: 5.89 µM (active) | IC50 [12]: > 50 µM (not active) | EC50 [13]: 5.32 µM (active)

Cc1cc2n(n1)SC(Nc1ccccc1)N2 (stereo not drawn)
IC50 [14]: > 50 µM (inactive) | IC50 (Phosphomannomutase 2): > 100 µM (inactive)

CCN(CC)C(=O)COC(=O)c1cc(-c2ccco2)nc2ccccc12
IC50 [15]: 12.7 µM (active) | IC50 [16]: 4.92 µM (active) | IC50 [17]: 3.26 µM (active) | IC50 (SUMO E1/E2): 2.71 µM (active) | IC50 [18]: 50 µM (inactive) | IC50 [19]: 19.2 µM (active) | IC50 [20]: 13.9 µM (active) | EC50 (Kallikrein-7): 23 µM (inactive)

CCOc1cc2[nH]c(=S)n(CCCC(=O)NCc3ccccn3)c(=O)c2cc1OCC
EC50 [21]: > 100 µM (inactive)

O=C(NCCCN1CCN(c2ccc(F)cc2)CC1)C1CCCN(c2ncnc3c2nc2n3CCCCC2)C1 (stereo not drawn)
IC50 (Bcl-2-related protein A1): > 20 µM (inactive) | IC50 [22]: 8.08 µM (active) | IC50 [23]: 3.64 µM (active)

Reference: ChEMBL document CHEMBL1201862, “PubChem BioAssay data set” (2004)
